Assay results: US20200190062A1, “HETEROCYCLIC COMPOUND AND PHARMACEUTICAL COMPOSITION COMPRISING SAME” (BEYONDBIO INC., priority 2015, published 2020)
Where a name gives a salt, the structure may show the parent alone.

How the values were obtained:
Test in all cases: Inhibition of cancer cell proliferation (MTT)
Format in all cases: cell-based, human
A549 = tested on: A549
Protocol: (§1) A test was conducted to confirm whether the compounds obtained in the above Examples can inhibit proliferation of human colon carcinoma cell line HCT116, glioblastoma cell lines U-87MG and T98G, neuroblastoma cell lines SH-SYSY and SK-N-SH, and lung cancer cell lines A549 and NCI-H23.
(§2) HCT116, U-87MG, SH-SYSY, SK-N-SH and A549 cells were culured in DMEM medium containing 10% FBS. T98G cells were cultured in MEM medium containing 10% FBS and NCI-H23 cells were cultured in […] medium containing 10% FBS. In order to analyze an inhibition of proliferation, HCT116 cells were dispensed in 2000 cells/well into 96 well plate, and SH-SYSY, SK-N-SH, U-87MG, T98G, A549, and NCI-H23 cells were dispensed in 3000 cells/well into 96 well plate. And then, the cells were cultured at 5% CO2 and 37° C. for 16 hrs to allow the cells to attach to the wells. The compounds of the above Examples were added to each well at a concentration of 0.004, 0.013, 0.04, 0.12, 0.37, 1.1, 3.3, and 10 uM, and the culture volume was adjusted to 100 ul. A control group was treated with dimethylsulfoxide (DMSO) at the same concentration, 0.08%, as used to treat the test compounds. Afterwards, cells were cultured at 5% CO2 and 37° C. for 72 hrs. And then, 10 ul of the solution of MTT (3-(4,5-dimethylthiazol-2-yl)-2,5-diphenyltetrazolium bromide) dissolved in PBS at 5 mg/ml was added to each well to identify viable cells and the cells were cultured for further 2 hrs. The culture solution was removed, 100 ul of DMSO was added to dissolve the formed formazan and then an absorbance was measured at 535 nm. Based on the absorbance of the control cells not treated with the compounds, the amounts of the viable cells according to the concentration of the compounds were calculated. GI50 (growth inhibition 50) value which is the concentration of the compound to inhibit cancer cell proliferation by 50% was calculated using Graphpad Prism 5.0 program.

HCT116 = tested on: HCT116
Protocol: as §1, §2

NCI-H23 = tested on: NCI-H23
Protocol: as §1, §2

T98G = tested on: T98G
Protocol: as §1, §2

U-87MG = tested on: U-87MG
Protocol: as §1, §2

Row | GI50 (A549; 72 hrs) [µM] | GI50 (HCT116; 72 hrs) [µM] | GI50 (NCI-H23; 72 hrs) [µM] | GI50 (T98G; 72 hrs) [µM] | GI50 (U-87MG; 72 hrs) [µM] | GI50 (A549; Homo sapiens, A549, 72 h) [µM] | GI50 (HCT116; Homo sapiens, HCT-116, 72 h) [µM] | GI50 (NCI-H23; Homo sapiens, NCI-H23, 72 h) [µM] | GI50 (T98G; Homo sapiens, T98G, 72 h) [µM] | GI50 (U-87MG; Homo sapiens, U-87 MG, 72 h) [µM] | SMILES
1 | 0.38 | 0.18 | 0.89 | 0.4 | 0.27 |  |  |  |  |  | Cc1c(-c2nc(-c3ccnc(N)c3F)ccc2O)nc(N)nc1C1CCN(C)CC1 [Example 42, 2′-amino-6-(2-amino-5-methyl-6-(1-methylpiperidin-4-yl)pyrimidin-4-yl)-3′-fluoro-[2,4′-bipyridin]-5-ol]
2 | 0.1 | 0.07 | 0.23 | 0.1 | 0.11 |  |  |  |  |  | Cc1c(-c2nc(-c3ccnc(N)c3F)ccc2O)nc(N)nc1C1CCN(C)CC1 [Example 93, 2′-amino-6-(2-amino-5-methyl-6-(1-methylpiperidin-4-yl)pyrimidin-4-yl)-3′-fluoro-[2,4′-bipyridin]-5-ol 4hydrochloride]
3 |  |  |  |  |  | 0.005 | 0.002 | 0.02 | 0.02 | 0.004 | CN1CCCC(c2cc(-c3nc(-c4ccnc(N)c4F)ccc3O)nc(N)n2)C1 (stereo not drawn) [Example 38, 2′-amino-6-(2-amino-6-(1-methylpiperidin-3-yl)pyrimidin-4-yl)-3′-fluoro-[2,4′-bipyridin]-5-ol]
4 | 0.16 |  | 0.18 | 0.13 |  |  | 0.05 |  |  | 0.11 | Cc1cnc(N)nc1-c1nc(-c2ccnc(N)c2F)ccc1O [Example 55, 2′-amino-6-(2-amino-5-methylpyrimidin-4-yl)-3′-fluoro-[2,4′-bipyridin]-5-ol]
5 |  |  | 0.33 |  |  | 0.14 | 0.06 |  | 0.13 | 0.09 | CCCN1CCC(c2nc(N)nc(-c3nc(-c4ccnc(N)c4F)ccc3O)c2C)CC1 [Example 44, 2′-amino-6-(2-amino-5-methyl-6-(1-propylpiperidin-4-yl)pyrimidin-4-yl)-3′-fluoro-[2,4′-bipyridin]-5-ol]
6 | 0.4 | 0.17 | 1.79 | 0.69 | 0.39 |  |  |  |  |  | CCN1CCCC(c2cc(-c3nc(-c4ccnc(N)c4F)ccc3O)nc(N)n2)C1 (stereo not drawn) [Example 39, 2′-amino-6-(2-amino-6-(1-ethylpiperidin-3-yl)pyrimidin-4-yl)-3′-fluoro-[2,4′-bipyridin]-5-ol]
7 |  |  |  |  |  | 0.46 | 0.23 | 0.96 | 0.46 | 0.28 | CCN1CCC(c2nc(N)nc(-c3nc(-c4ccnc(N)c4F)ccc3O)c2C)CC1 [Example 43, 2′-amino-6-(2-amino-6-(1-ethylpiperidin-4-yl)-5-methylpyrimidin-4-yl)-3′-fluoro-[2,4′-bipyridin]-5-ol]
8 |  | 0.01 |  |  |  | 0.02 |  | 0.05 | 0.02 | 0.01 | CCCN1CCC(c2cc(-c3nc(-c4ccnc(N)c4F)ccc3O)nc(N)n2)CC1 [Example 36, 2′-amino-6-(2-amino-6-(1-propylpiperidin-4-yl)pyrimidin-4-yl)-3′-fluoro-[2,4′-bipyridin]-5-ol]
9 | 0.12 | 0.06 | 0.23 | 0.29 | 0.23 |  |  |  |  |  | Cc1nc(N)nc(-c2nc(-c3ccnc(N)c3F)ccc2O)c1C [Example 101, 2′-amino-6-(2-amino-5,6-dimethylpyrimidin-4-yl)-3′-fluoro-[2,4′-bipyridin]-5-ol 3hydrochloride]
10 |  |  |  |  |  | 0.07 | 0.04 | 0.13 | 0.11 | 0.07 | CNc1nc(-c2nc(-c3ccnc(N)c3F)ccc2O)cc(C2CCN(C)CC2)n1 [Example 59, 2′-amino-3′-fluoro-6-(2-(methylamino)-6-(1-methylpiperidin-4-yl)pyrimidin-4-yl)-[2,4′-bipyridin]-5-ol]
11 |  | 0.01 |  |  |  | 0.02 |  | 0.06 | 0.03 | 0.01 | CC(C)N1CCC(c2cc(-c3nc(-c4ccnc(N)c4F)ccc3O)nc(N)n2)CC1 [Example 37, 2′-amino-6-(2-amino-6-(1-isopropylpiperidin-4-yl)pyrimidin-4-yl)-3′-fluoro-[2,4′-bipyridin]-5-ol]
12 |  |  |  |  |  | 0.07 | 0.03 | 0.06 | 0.04 | 0.06 | CC(C)c1cnc(N)nc1-c1nc(-c2ccnc(N)c2F)ccc1O [Example 58]
13 | 0.04 | 0.01 | 0.03 | 0.02 | 0.03 |  |  |  |  |  | CCc1cnc(N)nc1-c1nc(-c2ccnc(N)c2F)ccc1O [Example 102, 2′-amino-6-(2-amino-5-ethylpyrimidin-4-yl)-3′-fluoro-[2,4′-bipyridin]-5-ol 3hydrochloride]
14 | 0.02 | 0.01 | 0.05 | 0.19 | 0.03 |  |  |  |  |  | CCN1CCC(c2cc(-c3nc(-c4ccnc(N)c4F)ccc3O)nc(N)n2)CC1 [Example 86, 2′-amino-6-(2-amino-6-(1-ethylpiperidin-4-yl)pyrimidin-4-yl)-3′-fluoro-[2,4′-bipyridin]-5-ol 4hydrochloride]
15 |  |  |  |  |  | 0.21 | 0.14 | 0.41 | 0.25 | 0.15 | Cc1c(-c2nc(-c3ccnc(N)c3F)ccc2O)nc(N)nc1C1CCCN(C)C1 (stereo not drawn) [Example 46]
16 | 0.03 | 0.02 | 0.05 | 0.07 | 0.03 |  |  |  |  |  | CCCN1CCCC(c2cc(-c3nc(-c4ccnc(N)c4F)ccc3O)nc(N)n2)C1 (stereo not drawn) [Example 91, 2′-amino-6-(2-amino-6-(1-propylpiperidin-3-yl)pyrimidin-4-yl)-3′-fluoro-[2,4′-bipyridin]-5-ol 4hydrochloride]
17 |  |  |  |  |  | 0.05 | 0.02 | 0.07 | 0.05 | 0.03 | CCc1c(-c2nc(-c3ccnc(N)c3F)ccc2O)nc(N)nc1C1CCN(C(C)C)CC1 [Example 49, 2′-amino-6-(2-amino-5-ethyl-6-(1-isopropylpiperidin-4-yl)pyrimidin-4-yl)-3′-fluoro-[2,4′-bipyridin]-5-ol]
18 | 0.08 | 0.06 | 0.15 | 0.16 | 0.1 |  |  |  |  |  | CCCN1CCC(c2nc(N)nc(-c3nc(-c4ccnc(N)c4F)ccc3O)c2C)CC1 [Example 95, 2′-amino-6-(2-amino-5-methyl-6-(1-propylpiperidin-4-yl)pyrimidin-4-yl)-3′-fluoro-[2,4′-bipyridin]-5-ol 4hydrochloride]
19 | 1.3 | 0.89 | 2.06 | 1.75 | 0.97 |  |  |  |  |  | CCCN1CCCC(c2nc(N)nc(-c3nc(-c4ccnc(N)c4F)ccc3O)c2C)C1 (stereo not drawn) [Example 98, 2′-amino-6-(2-amino-5-methyl-6-(1-propylpiperidin-3-yl)pyrimidin-4-yl)-3′-fluoro-[2,4′-bipyridin]-5-ol 4hydrochloride]
20 | 0.06 | 0.02 | 0.14 | 0.09 | 0.07 |  |  |  |  |  | Nc1nc(-c2nc(-c3ccnc(N)c3F)ccc2O)cc(C2CCOCC2)n1 [Example 85, 2′-amino-6-(2-amino-6-(tetrahydro-2H-pyran-4-yl)pyrimidin-4-yl)-3′-fluoro-[2,4′-bipyridin]-5-ol 3hydrochloride]
21 | 0.07 | 0.03 | 0.07 | 0.05 | 0.06 |  |  |  |  |  | Cc1cnc(N)nc1-c1nc(-c2ccnc(N)c2F)ccc1O [Example 100, 2′-amino-6-(2-amino-5-methylpyrimidin-4-yl)-3′-fluoro-[2,4′-bipyridin]-5-ol 3hydrochloride]
22 |  |  |  |  |  | 1.44 | 0.81 | 2.23 | 1.41 | 1.09 | CCCN1CCCC(c2nc(N)nc(-c3nc(-c4ccnc(N)c4F)ccc3O)c2C)C1 (stereo not drawn) [Example 47, 2′-amino-6-(2-amino-5-methyl-6-(1-propylpiperidin-3-yl)pyrimidin-4-yl)-3′-fluoro-[2,4′-bipyridin]-5-ol]
23 | 0.22 | 0.06 | 2.03 | 0.29 | 0.18 |  |  |  |  |  | Nc1nc(-c2nc(-c3ccnc(N)c3F)ccc2O)cc(C2CCNCC2)n1 [Example 84, 2′-amino-6-(2-amino-6-(piperidin-4-yl)pyrimidin-4-yl)-3′-fluoro-[2,4′-bipyridin]-5-ol acetate]
24 | 0.12 | 0.03 | 1.18 | 0.15 | 0.09 |  |  |  |  |  | Nc1nc(-c2nc(-c3ccnc(N)c3F)ccc2O)cc(C2CCNCC2)n1 [Example 83, 2′-amino-6-(2-amino-6-(piperidin-4-yl)pyrimidin-4-yl)-3′-fluoro-[2,4′-bipyridin]-5-ol 4hydrochloride]
